Experimental data published in patent US9394549B2, “Method for producing useful chemical substance from terephthalic acid potassium salt” (GENARIS, INC., priority 2012, dated 2016).
Like-named read-outs stand apart in the source and are kept apart here.

Tests used:
[1] = Solubility of terephthalic acid salts in water; type: physicochemical
Protocol: 2.99 g (0.018 mol) of terephthalic acid (in a form of powder, manufactured by Sigma-Aldrich Japan; hereinafter, unless otherwise specified, reagents used were ones manufactured by Sigma-Aldrich Japan) and 0.036 mol of potassium hydroxide (in a form of granule) were put in a 50 mL-glass beaker. Distilled water was filled to obtain a volume of about 15 mL. The resulting mixture was covered with aluminum foil as a lid, heated at 50° C. for 60 minutes while stirred by a hot stirrer (manufactured by AS ONE Corporation), and allowed to cool to 30° C. After stirring at 30° C. for 120 minutes or more and confirming the precipitate remained in the solution, 1 mL of the solution was collected and subjected to centrifugation using a high speed micro centrifuge (manufactured by Tomy Seiko Co., Ltd.) (30° C., 14000 rpm (17800 g), 30 seconds) to collect the supernatant.
The concentration of terephthalic acid in this supernatant was measured and regarded as the solubility of dipotassium terephthalate. With regard to the measurement of the concentration of terephthalic acid, the sample was diluted 16,000-fold with 2.5% aqueous acetonitrile solution and analyzed in separation conditions of Table 1 using high performance liquid chromatography (Waters Corporation, LCT Premier XE). Thereafter, the concentration was calculated on the basis of a ratio of the area of terephthalic acid peaks using aqueous terephthalic acid solution with a known concentration as a control.

[2] = test system: Escherichia coli M7032 (pUXPEaLT_tpaA_tpaK_Pm_fucO_I7L_aldA) strain; assay: Decomposition of ethylene glycol during production of TPA-DHD; type: cell-based; settings: raw material dipotassium terephthalate with ethylene glycol, final concentration 72 mM
[3] = test system: Escherichia coli K-12 M7032 strain; assay: Decomposition of ethylene glycol during production of TPA-DHD, control strain; type: cell-based; settings: raw material dipotassium terephthalate with ethylene glycol, final concentration 72 mM
Protocol: Subsequently, in the same manner as described in Example 1, Escherichia coli M7032 (pUXPEaLT_tpaA_tpaK_Pm_fucO_I7L_aldA) strain and Escherichia coli K-12 M7032 strain which serves as a control were cultured in a mini jar fermentor. Concurrently with administration of dipotassium terephthalate which serves as a raw material, 0.278 ml (final concentration 72 mM) of ethylene glycol was placed.
Sampling was carried out 48 hours after the start of main culture. Each of the samples was subjected to analysis in conditions shown in Table 1 by an LC-TOF type mass spectrometer (Waters Corporation, LCT Premier XE). Identification of terephthalic acid was carried out with a combination of retention time of high performance liquid chromatography and an accurate mass value from the mass spectrometer, comparing to a standard sample of terephthalic acid. Among substances appeared as terephthalic acid decreased, TPA-DHD was identified on the basis of a predicted accurate mass value of TPA-DID. Further, quantification of TPA-DHD was carried out on the basis of a calibration curve prepared from an amount of terephthalic acid decreased and an increase in the peak area of TPA-DHD. […]

## N.O=C([O-])c1ccc(C(=O)O)cc1.[Na+] [1-sodium 4-ammonium terephthalate, reference compound]
[1]
  solubility: 612 mM
  solubility in water at 30° C.: about 0.61 M

## N.N.O=C(O)c1ccc(C(=O)O)cc1 [Diammonium terephthalate, diammonium terephthalate, reference compound]
[1]; 30 °C, water, thermodynamic from solid, in water at 30° C., rounded values of the summary, read-out: solubility in water at 30° C.
  solubility: ~510 mM
[1]; 30 °C, water, thermodynamic from solid, in water, 30° C., read-out: Solubility
  solubility: 512 mM

## O=C(O)C1=CC(O)C(O)(C(=O)O)C=C1 (stereo not drawn) [TPA-DHD, terephthalate 1,2-cis-dihydrodiol]
[2]
  amount of TPA-DHD produced 48 hours after the start of the culture: 10.5 g/L
[3]
  amount of TPA-DHD produced 48 hours after the start of the culture: 11.1 g/L
